From US20180284095A1, “BIOMARKERS ASSOCIATED WITH LSD1 INHIBITORS AND USES THEREOF” (Oryzon Genomics, S.A., priority 2015, published 2018)

Assays:
Assay type in all cases: in vivo, mouse
[1] = system: S100A8; assay: Microarray gene expression in brain, spleen and liver of Hsd:Athymic Nude-Foxn1nu mice (Example 7)
Method: (§1) Total RNA was extracted from samples using the RNeasy extraction kit (Qiagen). The quality and concentration of the RNA was analyzed using the Agilent 2100 bioanalyzer and NanoDrop™ ND-1000 (Thermo Scientific). Samples with RNA integrity number (RIN)<6.0 were discarded. Total RNA (0.5 μg) amplification and labelling with Cy3 or Cy5 was carried out using the Eberwein mRNA amplification procedure (Van Gelder et al, Proc Natl Acad Sci USA 1990, 87:1663-1667) employing the MessageAmp™ aRNA amplification kit from Ambion (Applied Biosystems) following the manufacturer's instructions with minor modifications. As hybridization controls, plant mRNAs were transcribed from a plasmid containing the Zea mays Xet (xyloglucan endo-transglycosylase) cDNA and from a plasmid containing the Zea mays Zmmyb42 cDNA, independently prepared Cy3 and Cy5 labelled aRNA from these two RNAs using the Eberwein mRNA amplification procedure (as disclosed in Cerdà et al, Gen Comp Endocrinol 2008, 156:470-481).
(§2) The Cy3- and Cy5-labelled cRNAs and spikes were combined and hybridized to the microarray described in Example 2.6 for 17 h at 60° C. using Agilent's gaskets G2534-60002, G2534A hybridization chambers and DNA Hybridization Oven G2545A, according to the manufacturer's instructions. More specifically, equal amounts of Cy3 and Cy5 labeled Xet aRNA as well as equal amounts of Cy3 and Cy5 labeled Zmmyb42 aRNA were spiked into each mixture hybridized to the array. Arrays were washed and raw data were obtained using Agilent's DNA Microarray Scanner G2505B and Feature Extraction software (v10.1). The raw fluorescence intensity data were processed using applicant's proprietary software, and consists in the following operations:
(§3) Data normalization was carried out by an improved version of the nonlinear Q-splines normalization method (Workman et al., Genome Biol 2002, 3(9):research0048.1-0048.16). Normalization results were presented graphically as MA plots, as first described by Dudoit et al (Dudoit et al, Statistica Sinica, 2002, 12:111-139). Each point corresponds to a probe of the DNA array. M values (vertical axis) are the log-differential expression ratios. A values (horizontal axis) are the log-intensities of the spots. M and A are calculated from the Cy5 and Cy3 intensity values as of each spot. The DNA Array data is normalized using an improved version of non-linear Q-Splines normalization described by Workman et al., Genome Biol 2002, 3(9):research0048.1-0048.16. This process is useful to correct the deviation of the M values from the statistical assumption that most of the spots have M=0 in MA plots. The method allows the adjustment of all M values to form a cloud centered at M=0 in all intensity ranges. The data used to calculate the normalization fitting curve is the totality of the raw measurement dataset, excluding the signals for the probes for the spiked-in plant RNA controls and negative controls. In order to be able to normalize properly the data among all the experiments, the probe-set must include an important group of genes that should have no change (M=0) in the experiment. The normalization function is then applied to all the data, including controls.
(§4) Normalized and log-transformed data were used to calculate log 2 (sample/control) and Fold Change (FC) values. No background subtraction was applied to the signal intensity values during data processing, permitting robust selection of differentially expressed genes with low expression levels at the cost of potential sub-estimation of change when intensity levels are close to the array background level.
(§5) Powered Compound 3, 4 or 5 was dissolved in a 20% solution of 2-hydroxypropyl-R-cyclodextrin in water at the appropriate concentrations, vortexed and placed in an ultrasonic bath for 5 minutes.
(§6) Hsd:Athymic Nude-Foxn1nu mice were maintained in air- and temperature-controlled cages with regular supply of water and food. A maximum of 6 mice/cage were raised. […]

[2] = system: S100A9; assay: as above
Method: as §1, §2, §3, §4, §5, §6

[3] = system: TUBB2C; assay: Microarray gene expression in brain, spleen and liver of Hsd:Athymic Nude-Foxn1nu mice (Example 7), housekeeping gene
Method: as §1, §2, §3, §4, §5, §6

[4] = system: TUBB3; assay: as above
Method: as §1, §2, §3, §4, §5, §6

With `N[C@H]1CCN(CCN[C@H]2C[C@@H]2c2ccc(-c3cccc(C(F)(F)F)c3)cc2)C1` (racemic) [Compound 5, (S)-1-(2-(((trans)-2-(3′-(trifluoromethyl)-[1,1′-biphenyl]-4-yl)cyclopropyl)amino)ethyl)pyrrolidin-3-amine] the “Hybridization signal sample_Cy5” value ([1]; BRAIN, S100A8, 3.3 mg/kg) was 268.162, the “log2 (sample/control)” value ([1]; BRAIN, S100A8, 3.3 mg/kg vs VEH) was −0.6462 and the “Hybridization signal sample_Cy5” value ([1]; BRAIN, S100A8, 11 mg/kg) was 38.4889. For the same compound, the “log2 (sample/control)” value ([1]; BRAIN, S100A8, 11 mg/kg vs VEH) was −3.263, the “Hybridization signal sample_Cy5” value ([1]; BRAIN, S100A8, 33 mg/kg) was 36.6941 and the “log2 (sample/control)” value ([1]; BRAIN, S100A8, 33 mg/kg vs VEH) was −3.57. For the same compound, the “Hybridization signal sample_Cy5” value ([1]; LIVER, S100A8, 3.3 mg/kg) was 315.439, the “log2 (sample/control)” value ([1]; LIVER, S100A8, 3.3 mg/kg vs VEH) was −0.4761 and the “Hybridization signal sample_Cy5” value ([1]; LIVER, S100A8, 11 mg/kg) was 73.2915. For the same compound, the “log2 (sample/control)” value ([1]; LIVER, S100A8, 11 mg/kg vs VEH) was −2.357, the “Hybridization signal sample_Cy5” value ([1]; LIVER, S100A8, 33 mg/kg) was 57.5133 and the “log2 (sample/control)” value ([1]; LIVER, S100A8, 33 mg/kg vs VEH) was −2.909. For the same compound, the “Hybridization signal sample_Cy5” value ([1]; SPLEEN, S100A8, 3.3 mg/kg) was 4802.3, the “log2 (sample/control)” value ([1]; SPLEEN, S100A8, 3.3 mg/kg vs VEH) was −1.65 and the “Hybridization signal sample_Cy5” value ([1]; SPLEEN, S100A8, 11 mg/kg) was 382.984. The “log2 (sample/control)” value ([1]; SPLEEN, S100A8, 11 mg/kg vs VEH) was −5.38, the “Hybridization signal sample_Cy5” value ([1]; SPLEEN, S100A8, 33 mg/kg) was 408.877 and the “log2 (sample/control)” value ([1]; SPLEEN, S100A8, 33 mg/kg vs VEH) was −5.243. The “Hybridization signal sample_Cy5” value ([2]; BRAIN, S100A9, 3.3 mg/kg) was 746.537, the “log2 (sample/control)” value ([2]; BRAIN, S100A9, 3.3 mg/kg vs VEH) was −0.9635 and the “Hybridization signal sample_Cy5” value ([2]; BRAIN, S100A9, 11 mg/kg) was 60.5479. For the same compound, the “log2 (sample/control)” value ([2]; BRAIN, S100A9, 11 mg/kg vs VEH) was −4.54, the “Hybridization signal sample_Cy5” value ([2]; BRAIN, S100A9, 33 mg/kg) was 58.3941 and the “log2 (sample/control)” value ([2]; BRAIN, S100A9, 33 mg/kg vs VEH) was −4.697. For the same compound, the “Hybridization signal sample_Cy5” value ([2]; LIVER, S100A9, 3.3 mg/kg) was 987.357, the “log2 (sample/control)” value ([2]; LIVER, S100A9, 3.3 mg/kg vs VEH) was −0.5728 and the “Hybridization signal sample_Cy5” value ([2]; LIVER, S100A9, 11 mg/kg) was 170.929. The “log2 (sample/control)” value ([2]; LIVER, S100A9, 11 mg/kg vs VEH) was −3.056, the “Hybridization signal sample_Cy5” value ([2]; LIVER, S100A9, 33 mg/kg) was 113.971 and the “log2 (sample/control)” value ([2]; LIVER, S100A9, 33 mg/kg vs VEH) was −3.811. The “Hybridization signal sample_Cy5” value ([2]; SPLEEN, S100A9, 3.3 mg/kg) was 13461.8, the “log2 (sample/control)” value ([2]; SPLEEN, S100A9, 3.3 mg/kg vs VEH) was −1.719 and the “Hybridization signal sample_Cy5” value ([2]; SPLEEN, S100A9, 11 mg/kg) was 963.073. The “log2 (sample/control)” value ([2]; SPLEEN, S100A9, 11 mg/kg vs VEH) was −5.625, the “Hybridization signal sample_Cy5” value ([2]; SPLEEN, S100A9, 33 mg/kg) was 944.034 and the “log2 (sample/control)” value ([2]; SPLEEN, S100A9, 33 mg/kg vs VEH) was −5.685. For the same compound, the “Hybridization signal sample_Cy5” value ([3]; BRAIN, 3.3 mg/kg) was 10642, the “log2 (sample/control)” value ([3]; BRAIN, 3.3 mg/kg vs VEH) was −0.01396 and the “Hybridization signal sample_Cy5” value ([3]; BRAIN, 11 mg/kg) was 11161.1. For the same compound, the “log2 (sample/control)” value ([3]; BRAIN, 11 mg/kg vs VEH) was −0.06127, the “Hybridization signal sample_Cy5” value ([3]; BRAIN, 33 mg/kg) was 12584.1 and the “log2 (sample/control)” value ([3]; BRAIN, 33 mg/kg vs VEH) was −0.05145. For the same compound, the “Hybridization signal sample_Cy5” value ([3]; LIVER, 3.3 mg/kg) was 3670.67, the “log2 (sample/control)” value ([3]; LIVER, 3.3 mg/kg vs VEH) was 0.3692 and the “Hybridization signal sample_Cy5” value ([3]; LIVER, 11 mg/kg) was 3985.13. For the same compound, the “log2 (sample/control)” value ([3]; LIVER, 11 mg/kg vs VEH) was 0.457, the “Hybridization signal sample_Cy5” value ([3]; LIVER, 33 mg/kg) was 4335.41 and the “log2 (sample/control)” value ([3]; LIVER, 33 mg/kg vs VEH) was 0.3205. For the same compound, the “Hybridization signal sample_Cy5” value ([3]; SPLEEN, 3.3 mg/kg) was 8986.8, the “log2 (sample/control)” value ([3]; SPLEEN, 3.3 mg/kg vs VEH) was −0.9476 and the “Hybridization signal sample_Cy5” value ([3]; SPLEEN, 11 mg/kg) was 9222.71. The “log2 (sample/control)” value ([3]; SPLEEN, 11 mg/kg vs VEH) was −0.8739, the “Hybridization signal sample_Cy5” value ([3]; SPLEEN, 33 mg/kg) was 6535.64 and the “log2 (sample/control)” value ([3]; SPLEEN, 33 mg/kg vs VEH) was −1.41. The “Hybridization signal sample_Cy5” value ([4]; BRAIN, TUBB3, 3.3 mg/kg) was 4740.83, the “log2 (sample/control)” value ([4]; BRAIN, TUBB3, 3.3 mg/kg vs VEH) was −0.05126 and the “Hybridization signal sample_Cy5” value ([4]; BRAIN, TUBB3, 11 mg/kg) was 6217.25. For the same compound, the “log2 (sample/control)” value ([4]; BRAIN, TUBB3, 11 mg/kg vs VEH) was −0.02834, the “Hybridization signal sample_Cy5” value ([4]; BRAIN, TUBB3, 33 mg/kg) was 5722.06 and the “log2 (sample/control)” value ([4]; BRAIN, TUBB3, 33 mg/kg vs VEH) was 0.1073. The “Hybridization signal sample_Cy5” value ([4]; LIVER, TUBB3, 3.3 mg/kg) was 49.0459, the “log2 (sample/control)” value ([4]; LIVER, TUBB3, 3.3 mg/kg vs VEH) was −0.4483 and the “Hybridization signal sample_Cy5” value ([4]; LIVER, TUBB3, 11 mg/kg) was 43.197. The “log2 (sample/control)” value ([4]; LIVER, TUBB3, 11 mg/kg vs VEH) was −0.6411, the “Hybridization signal sample_Cy5” value ([4]; LIVER, TUBB3, 33 mg/kg) was 52.03 and the “log2 (sample/control)” value ([4]; LIVER, TUBB3, 33 mg/kg vs VEH) was −0.4211. For the same compound, the “Hybridization signal sample_Cy5” value ([4]; SPLEEN, TUBB3, 3.3 mg/kg) was 88.3418, the “log2 (sample/control)” value ([4]; SPLEEN, TUBB3, 3.3 mg/kg vs VEH) was 0.169 and the “Hybridization signal sample_Cy5” value ([4]; SPLEEN, TUBB3, 11 mg/kg) was 229.738. The “log2 (sample/control)” value ([4]; SPLEEN, TUBB3, 11 mg/kg vs VEH) was 1.521, the “Hybridization signal sample_Cy5” value ([4]; SPLEEN, TUBB3, 33 mg/kg) was 167.826 and the “log2 (sample/control)” value ([4]; SPLEEN, TUBB3, 33 mg/kg vs VEH) was 1.398.
